Target: T1, P2X7 receptor (Homo sapiens, UniProt Q99572)
T1 construct: host or cells: THP-1 cells differentiated with LPS and IFN-γ
T1 sequence (Q99572 1-595): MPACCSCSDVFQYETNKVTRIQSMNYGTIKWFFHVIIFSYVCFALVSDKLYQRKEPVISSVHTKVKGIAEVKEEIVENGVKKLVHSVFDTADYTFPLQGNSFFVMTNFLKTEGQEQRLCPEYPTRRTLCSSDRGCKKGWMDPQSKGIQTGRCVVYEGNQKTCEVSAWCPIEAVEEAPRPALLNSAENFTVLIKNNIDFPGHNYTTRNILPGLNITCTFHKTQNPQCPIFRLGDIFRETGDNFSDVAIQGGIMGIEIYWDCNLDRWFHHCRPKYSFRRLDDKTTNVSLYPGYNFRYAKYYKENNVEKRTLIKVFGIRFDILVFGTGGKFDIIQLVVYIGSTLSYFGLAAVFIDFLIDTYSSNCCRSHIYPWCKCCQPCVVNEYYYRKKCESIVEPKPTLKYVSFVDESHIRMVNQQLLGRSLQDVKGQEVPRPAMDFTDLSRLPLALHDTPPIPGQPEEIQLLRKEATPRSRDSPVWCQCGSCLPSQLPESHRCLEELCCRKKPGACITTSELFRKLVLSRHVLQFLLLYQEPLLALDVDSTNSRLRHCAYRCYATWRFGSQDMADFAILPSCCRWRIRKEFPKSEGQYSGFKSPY
Test: IL-1β release assay (BzATP-stimulated, LPS/IFN-γ differentiated THP-1 cells, ELISA)
Format: cell-based
Settings: at 0.1 μM (asterisk symbols)
Experimental: THP-1 cells (ATCC Cat # 285-IF-100) are plated in 96 well plates at a concentration of 200,000 cells per well and allowed to differentiate in RPMI-1640 media (ATCC Cat # 30-2001) containing 10% FBS, 100 IU/mL penicillin, 100 ug/mL streptomycin, 100 ng/mL LPS and 100 ng/mL IFN-γ for 16 hours. Following differentiation, the cells are treated for an additional 2 hours in RPMI-1640 media containing 100 IU/mL penicillin, 100 ug/mL streptomycin and fresh LPS at 100 ng/mL. The cells are then pretreated for 30 minutes with the compound of interest at the appropriate concentration in RPMI media containing 100 IU/mL penicillin, 100 ug/mL streptomycin. Following the pretreatment 2′,3′-O-(4-benzoylbenzoyl)-adenosine 5′-triphosphate (Sigma Aldrich Cat# B6396) is added to a final concentration of 250 uM and the cells incubated for an additional 45 minutes. 30 uL of cell supernatant is then collected and […] levels determined via ELISA (R&D systems Cat. # HSLB50) according to manufacturer's recommendations using the Tecan Safire plate reader. Background adjusted IL-1β levels of drug treated and non-treated cells are used to calculate the percent inhibition.

inhibition at 0.1 µM	Compound
≥ 75%	CC12CC3CC(C)(C1)CC(CC(=O)Nc1cccc4c(=O)n(Cc5ccc(F)cc5F)ccc14)(C3)C2 [Compound 764]
25 to 50%	CC12CC3CC(C)(C1)CC(CC(=O)Nc1cccc4c1CCN(Cc1ccc(F)cc1F)C4=O)(C3)C2 [Compound 765]
50 to 75%	CC12CC3CC(C)(C1)CC(CC(=O)Nc1cccc4c(=O)n(CC5COc6ccccc6O5)ccc14)(C3)C2 (stereo not drawn) [Compound 766]
≥ 75%	CN1CCC(Cn2ccc3c(NC(=O)CC45CC6CC(CC(C6)C4)C5)cccc3c2=O)CC1 [Compound 767]
50 to 75%	CS(=O)(=O)c1ccc(Cn2ccc3c(NC(=O)CC45CC6CC(CC(C6)C4)C5)cccc3c2=O)cc1 [Compound 768]
≥ 75%	O=C(CC12CC3CC(CC(C3)C1)C2)Nc1cccc2c(=O)n(Cc3cccc4c3OCCO4)ccc12 [Compound 769]
≥ 75%	O=C(CC12CC3CC(CC(C3)C1)C2)Nc1cccc2c(=O)n(Cc3cn4ccccc4n3)ccc12 [Compound 770]
≥ 75%	O=C(CC12CC3CC(CC(C3)C1)C2)Nc1cccc2c(=O)n(C[C@H]3CCCO3)ccc12 [Compound 771]
50 to 75%	CCN1CCCC1Cn1ccc2c(NC(=O)CC34CC5CC(C)(CC(C)(C5)C3)C4)cccc2c1=O (stereo not drawn) [Compound 772]
≥ 75%	CC(C)(C)OC(=O)N1CCCC1Cn1ccc2c(NC(=O)CC34CC5CC(CC(C5)C3)C4)cccc2c1=O (stereo not drawn) [Compound 773]
≥ 75%	CC(C)(C)OC(=O)N1CCC[C@@H]1Cn1ccc2c(NC(=O)CC34CC5CC(CC(C5)C3)C4)cccc2c1=O [Compound 774]
≥ 75%	NC(=O)[C@H](Cc1ccccc1)n1ccc2c(NC(=O)CC34CC5CC(CC(C5)C3)C4)cccc2c1=O [Compound 776]
≥ 75%	CC12CC3CC(C)(C1)CC(CC(=O)Nc1cccc4c1CCN(Cc1ccccc1)C4=O)(C3)C2 [Compound 777]
≥ 75%	Cc1cnc(CN2CCc3c(NC(=O)CC45CC6CC(C)(CC(C)(C6)C4)C5)cccc3C2=O)cn1 [Compound 778]
≥ 75%	O=C(CC12CC3CC(CC(C3)C1)C2)Nc1cccc2c(=O)n(Cc3ccc4c(c3)OCO4)ccc12 [Compound 779]
≥ 75%	O=C(CC12CC3CC(CC(C3)C1)C2)Nc1cccc2c(=O)n(CCCN3CCOCC3)ccc12 [Compound 781]
≥ 75%	O=C(CC12CC3CC(CC(C3)C1)C2)Nc1cccc2c(=O)n(CCc3cccnc3)ccc12 [Compound 782]
≥ 75%	O=C(CC12CC3CC(CC(C3)C1)C2)Nc1cccc2c(=O)n(CCN3CCCC3)ccc12 [Compound 783]
≥ 75%	O=C(CC12CC3CC(CC(C3)C1)C2)Nc1cccc2c(=O)n(CCc3ccncc3)ccc12 [Compound 784]

inhibition at 0.1 µM	Compound
50 to 75%	O=C(CC12CC3CC(CC(C3)C1)C2)Nc1cccc2c(=O)n(CCc3ccccn3)ccc12 [Compound 785]
≥ 75%	O=C(CC12CC3CC(CC(C3)C1)C2)Nc1cccc2c(=O)n(CCN3CCSCC3)ccc12 [Compound 786]
≥ 75%	CN1CCN(CCCn2ccc3c(NC(=O)CC45CC6CC(CC(C6)C4)C5)cccc3c2=O)CC1 [Compound 787]
≥ 75%	CN1CCCC1CCn1ccc2c(NC(=O)CC34CC5CC(CC(C5)C3)C4)cccc2c1=O (stereo not drawn) [Compound 788]
≥ 75%	O=C(CC12CC3CC(CC(C3)C1)C2)Nc1cccc2c(=O)n(CCCN3CCCC3)ccc12 [Compound 789]
≥ 75%	O=C(CC12CC3CC(CC(C3)C1)C2)Nc1cccc2c1CCN(Cc1ccccc1F)C2=O [Compound 790]
≥ 75%	O=C(CC12CC3CC(CC(C3)C1)C2)Nc1cccc2c1CCN(Cc1ccc3c(c1)OCCO3)C2=O [Compound 791]
≥ 75%	O=C(CC12CC3CC(CC(C3)C1)C2)Nc1cccc2c(=O)n(Cc3ccccc3Cl)ccc12 [Compound 793]
≥ 75%	CN1CCC(CN2CCc3c(NC(=O)CC45CC6CC(CC(C6)C4)C5)cccc3C2=O)CC1 [Compound 794]
≥ 75%	O=C(CC12CC3CC(CC(C3)C1)C2)Nc1cccc2c1CCN(Cc1ccccn1)C2=O [Compound 795]
≥ 75%	O=C(CC12CC3CC(CC(C3)C1)C2)Nc1cccc2c1CCN(CC1COCCO1)C2=O (stereo not drawn) [Compound 796]
≥ 75%	Cc1cc(CN2CCc3c(NC(=O)CC45CC6CC(CC(C6)C4)C5)cccc3C2=O)nn1C [Compound 797]
≥ 75%	O=C(CC12CC3CC(CC(C3)C1)C2)Nc1cccc2c1CCN(Cc1c(F)cccc1F)C2=O [Compound 798]
≥ 75%	O=C(CC12CC3CC(CC(C3)C1)C2)Nc1cccc2c1CCN(Cc1ccc(F)c(F)c1)C2=O [Compound 799]
50 to 75%	CN(C)CCN1CCc2c(NC(=O)CC34CC5CC(CC(C5)C3)C4)cccc2C1=O [Compound 800]
≥ 75%	Cc1cc(CN2CCc3c(NC(=O)CC45CC6CC(CC(C6)C4)C5)cccc3C2=O)no1 [Compound 801]
≥ 75%	O=C(CC12CC3CC(CC(C3)C1)C2)Nc1cccc2c1CCN(CCc1c[nH]cn1)C2=O [Compound 802]
≥ 75%	CC12CC3CC(C)(C1)CC(CC(=O)Nc1cccc4c(=O)n(Cc5ccc6c(c5)OCCO6)ccc14)(C3)C2 [Compound 803]
≥ 75%	Cn1ccc2c(NC(=O)CC34CC5CC(CC(C5)C3)C4)cccc2c1=O [Compound 805, adamantyl-N-(2-methyl-1-oxo-1,2-dihydroisoquinolin-5-yl)acetamide]

inhibition at 0.1 µM	Compound
≥ 75%	CC1CNC(CN2CCc3c(NC(=O)CC45CC6CC(CC(C6)C4)C5)cccc3C2=O)CN1 (stereo not drawn) [Compound 806]
0 to 25%	CC12CC3CC(C)(C1)CC(CC(=O)Nc1cccc4c1CCN(Cc1ccccn1)C4=O)(C3)C2 [Compound 807]
≥ 75%	O=C(CC12CC3CC(CC(C3)C1)C2)Nc1cccc2c(=O)n(CCc3c[nH]cn3)ccc12 [Compound 808]
≥ 75%	O=C(CC12CC3CC(CC(C3)C1)C2)Nc1cccc2c(=O)n(CC3CCCN3)ccc12 (stereo not drawn) [Compound 809]
≥ 75%	O=C(CC12CC3CC(CC(C3)C1)C2)Nc1cccc2c(=O)n(C[C@@H]3CCCN3)ccc12 [Compound 810]
≥ 75%	O=C(CC12CC3CC(CC(C3)C1)C2)Nc1cccc2c(=O)n(C[C@H]3CCCN3)ccc12 [Compound 811]
≥ 75%	CC12CC3CC(C)(C1)CC(CC(=O)Nc1cccc4c1CCN(CC1CCOCC1)C4=O)(C3)C2 [Compound 813]
≥ 75%	CC12CC3CC(C)(C1)CC(CC(=O)Nc1cccc4c1CCN(Cc1ccc5c(c1)OCO5)C4=O)(C3)C2 [Compound 814]
50 to 75%	CC12CC3CC(C)(C1)CC(CC(=O)Nc1cccc4c1CCN(CCN1CCOCC1)C4=O)(C3)C2 [Compound 815]
25 to 50%	O=C(Nc1cccc2c(=O)n(Cc3ccccc3)ccc12)C12CC3CC(CC(F)(C3)C1)C2 [Compound 816, 3-Fluoro-Adamantan-1-yl-N-(2-benzyl-1-oxo-1,2-dihydro-isoquinolin-5-yl)-formamide]
≥ 75%	O=C(CC12CC3CC(CC(C3)C1)C2)Nc1cccc2c1CCN(CCN1CCOCC1)C2=O [Compound 817]
50 to 75%	C[C@@H](c1ccccc1)n1ccc2c(NC(=O)CC34CC5CC(C)(CC(C)(C5)C3)C4)cccc2c1=O [Compound 818]
50 to 75%	CC12CC3CC(C)(C1)CC(CC(=O)Nc1cccc4c(=O)n(Cc5ccc(F)c(F)c5)ccc14)(C3)C2 [Compound 819]
≥ 75%	CC12CC3CC(C)(C1)CC(CC(=O)Nc1cccc4c(=O)n(CC5CCOCC5)ccc14)(C3)C2 [Compound 820]
≥ 75%	CC12CC3CC(C)(C1)CC(CC(=O)Nc1cccc4c(=O)n(Cc5ccc6c(c5)OCO6)ccc14)(C3)C2 [Compound 821]
≥ 75%	CC12CC3CC(C)(C1)CC(CC(=O)Nc1cccc4c1CCN(CCCN1CCOCC1)C4=O)(C3)C2 [Compound 822]
≥ 75%	CC12CC3CC(C)(C1)CC(CC(=O)Nc1cccc4c1CCN(Cc1ccc5c(c1)OCCO5)C4=O)(C3)C2 [Compound 823]
50 to 75%	O=C(CC12CC3CC(CC(C3)C1)C2)Nc1cccc2c(=O)n(CCCn3ccnc3)ccc12 [Compound 824]
≥ 75%	Cc1cccnc1CN1CCc2c(NC(=O)CC34CC5CC(CC(C5)C3)C4)cccc2C1=O [Compound 825]
